In data set [1] the target is T1, hPNKP 3'-phosphatase activity (Homo sapiens, UniProt Q96T60).
T1 construct: made in house; host or cells: bacteria (said only for the batch compared with aprataxin)
The data set is described as follows: Conventional radio-gel assay for hPNKP 3'-phosphatase activity. Type of data set: biochemical.

Data set [2] concerns the target T2, Phage T4 polynucleotide kinase (T4 PNK) (Enterobacteria phage T4, UniProt P06855).
T2 construct: purchased Roche Diagnostics (Indianapolis, Ind.)
The data set is described as follows: PiColorLock 3'-phosphatase assay, phage T4 PNK. It is filed as biochemical, bacteriophage T4. An excerpt:
(§1) To determine the specificity of A12B4C3 for human PNKP phosphatase activity, a number of closely related phosphatases such as the PNKP enzymes isolated from bacteriophage T4, Schizosaccharomyces pombe and mouse, as well as aprataxin, were examined.

The target in a further data set is T3, mouse PNKP (Mus musculus, UniProt Q9JLV6).
T3 construct: made in house
T3 sequence (Q9JLV6 whole entry): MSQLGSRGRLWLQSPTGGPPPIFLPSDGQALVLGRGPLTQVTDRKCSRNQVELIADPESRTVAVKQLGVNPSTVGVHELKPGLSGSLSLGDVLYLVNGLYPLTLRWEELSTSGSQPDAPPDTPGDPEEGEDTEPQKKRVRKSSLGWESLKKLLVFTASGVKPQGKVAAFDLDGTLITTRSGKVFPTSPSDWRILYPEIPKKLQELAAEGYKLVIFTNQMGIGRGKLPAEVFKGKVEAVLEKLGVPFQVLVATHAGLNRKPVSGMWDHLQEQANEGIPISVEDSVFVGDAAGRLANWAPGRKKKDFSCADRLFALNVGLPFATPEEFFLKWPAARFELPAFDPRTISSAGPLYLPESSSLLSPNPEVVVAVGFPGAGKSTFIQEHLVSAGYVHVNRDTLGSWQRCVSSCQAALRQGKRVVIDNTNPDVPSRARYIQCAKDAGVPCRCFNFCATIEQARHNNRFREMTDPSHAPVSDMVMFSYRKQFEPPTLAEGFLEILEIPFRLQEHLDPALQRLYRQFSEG
The data set is described as follows: PiColorLock 3'-phosphatase assay, mouse PNKP. It is filed as biochemical. Conditions: all concentrations tested (down to 5 μM).
Text: as §1

For the next data set, the target named is T4, aprataxin (APTX) (Homo sapiens, UniProt Q7Z2E3).
T4 construct: made in house; host or cells: E. coli BL21-Gold (DE3), QIAgene expression construct (Qiagen)
T4 sequence (Q7Z2E3 whole entry): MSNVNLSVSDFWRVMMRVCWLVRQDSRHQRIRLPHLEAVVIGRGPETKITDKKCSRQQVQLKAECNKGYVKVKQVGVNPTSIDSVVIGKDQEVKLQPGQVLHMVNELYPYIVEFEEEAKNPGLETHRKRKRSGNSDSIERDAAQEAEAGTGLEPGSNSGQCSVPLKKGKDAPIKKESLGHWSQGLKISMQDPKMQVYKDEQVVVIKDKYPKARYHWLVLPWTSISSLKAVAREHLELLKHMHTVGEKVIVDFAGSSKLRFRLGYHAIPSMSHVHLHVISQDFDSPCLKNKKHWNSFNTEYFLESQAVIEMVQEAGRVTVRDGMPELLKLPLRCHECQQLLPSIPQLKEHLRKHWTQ
The experiment in a line: 3'-DNA phosphatase activity of aprataxin. Type of data set: biochemical. The following applies: 50 μM. The protocol: Human recombinant aprataxin (APTX) protein with an N-terminal 6× His tag was expressed in BL21-Gold (DE3) E. coli competent cells (Stratagene, La Jolla, Calif.) using the QIAgene expression construct (Qiagen, Mississauga, ON). A single colony of kanamycin resistant E. coli was used to inoculate a 200-ml overnight culture (e.g., about 12 to about 16 hours in Luria-Bertani (LB) media containing 30 μg/ml kanamycin. Four 50-ml fractions of overnight culture were then subcultured into 4×1 L LB without kanamycin. Once the culture reached an optical density of ˜0.6 at 600 nm, protein expression was induced using 0.2 mM isopropyl-1-thio-β-galactopyranoside (Sigma, St Louis, Mo.) at 37° C. for 2 hours. Cells were harvested by centrifugation at 10,000 rpm for 10 minutes at 4° C. and resuspended in 40 ml buffer (50 mM NaH2PO4, 250 mM NaCl, 1 mM PMSF, at pH 7.9). The solution was then stirred on ice for 30 minutes in the presence of 30 mg lysozyme and 4 mg PMSF, 1 μg/ml each of pepstatin and leupeptin. […] His-APTX concentration was then determined using the Bio-Rad Protein assay (Bio-Rad, Mississauga, ON).
It was also tested whether A12B4C3 could inhibit aprataxin, which is another human DNA 3′-phosphatase. For this experiment, the oligonucleotide substrate was incubated with equal quantities of the two enzymes that were purified from bacteria on the same day. […]

In data set [3] the target is T5, human PNKP kinase activity (Homo sapiens, UniProt Q96T60).
T5 construct: made in house; host or cells: bacteria (said only for the batch compared with aprataxin)
The data set is described as follows: DNA kinase assay. It is filed as biochemical. The protocol:
Reaction mixtures (20 μl) containing kinase buffer (80 mM succinic acid (pH 5.5), 10 mM MgCl2, and 1 mM DTT), 100 μM 20-mer oligonucleotide substrate, 3.3 pmol of [γ-32P]ATP, A12B4C3 (0-50 μM) in 2 μl DMSO, and 1 μg of PNK were incubated at 37° C. for 20 minutes. The reaction was stopped by addition of an equal volume of DNA loading dye (90% formamide, 0.02% bromophenol blue, 0.02% xylene cyanol in 1×TBE). Samples were boiled for 5 minutes and the products separated on a 12% polyacrylamide/8 M urea gel. Gels were scanned with a Typhoon 9400 Variable Mode Imager (GE Healthcare), and quantified using Image Quant 5.2 Software (GE Healthcare).
The effect of A12B4C3 on the kinase activity of human PNKP was examined by quantifying the transfer of ^32P-labeled phosphate from radiolabeled ATP to an oligonucleotide. […] However, the inhibition of the kinase and phosphatase activities cannot be directly compared because the standard assay for kinase activity uses ten-fold more enzyme than the assay for phosphatase activity

Another data set has as its system A549 cells. The data set is described as follows: Cell proliferation (MTS) assay, compound alone. It is filed as cell-based, human. The following applies: 72 hours. The procedure:
(§2) To determine the effect of the inhibition of PNKP by small molecule inhibitors on cell proliferation we used the CellTiter 96™ AQueous Non-Radioactive Cell Proliferation Assay (Promega, Madison Wis.), better known as the MTS assay. Approximately 2.5×10^3 A549 cells were plated in triplicate in a 96-well plate with different concentration of A12B4C3. After 72 hours, 20 μl of CellTiter 96 Aqueous One Solution Reagent was added to each well and cells were incubated for 4 more hours at 37° C. The absorbance recorded at 490 nm was used as the number of living cells in culture (FLUOstar Optima, BMG Labtechnologies).
(§3) A12B4C3 was first tested for inherent toxicity. Cytotoxicity was measured by cell proliferation assay after exposure of A549 human lung adenocarcinoma cells and MDA-MB-231 cells to different doses of the compound for 72 hours (FIG. 6A). A dose-dependent reduction in cell proliferation up to 50% at 100 μM A12B4C3 was observed. […] While not wishing to be bound by theory, this may be indicative of a maximal level of drug uptake. No effect on cell proliferation was detected after exposure to 1 μM A12B4C3.

The next data set relates to MDA-MB-231 cells. The experiment in a line: Cell proliferation (MTS) assay, compound alone. Conditions: 72 hours. Type of data set: cell-based, human. The protocol:
as §2, §3

For data set [4], the system named is M059J cells (DNA-PKcs negative). Type of data set: cell-based, human.

T2 sequence (P06855 whole entry): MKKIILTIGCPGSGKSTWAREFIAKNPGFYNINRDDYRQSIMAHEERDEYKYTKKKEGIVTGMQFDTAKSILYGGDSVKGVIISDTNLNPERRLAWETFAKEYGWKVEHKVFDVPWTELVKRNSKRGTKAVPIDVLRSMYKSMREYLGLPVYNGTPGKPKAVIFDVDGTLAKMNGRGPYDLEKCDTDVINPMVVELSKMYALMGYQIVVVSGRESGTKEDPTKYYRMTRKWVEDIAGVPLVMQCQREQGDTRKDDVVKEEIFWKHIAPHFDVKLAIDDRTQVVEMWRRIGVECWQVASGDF

A word on the inhibition: it is the drop in the measured response relative to a control, in per cent. Regarding `CCCCCCCCCCC(O)C1C=CC2C(=O)N(c3ccccc3)C(=O)C2N1Nc1ccc([N+](=O)[O-])cc1` (stereo not drawn) [Compound A12B4C3, 2-(1-hydroxyundecyl)-1-(4-nitrophenylamino)-6-phenyl-6,7a-dihydro-1H-pyrrolo[3,4-b]pyridine-5,7(2H,4aH)-dione], the “inhibition of hPNKP phosphatase activity, radio-gel assay” value in data set [1] is listed as “inhibited”. In addition, in data set [2] (50 μM), the “inhibition of phage T4 PNKP” value is on record as “failed to inhibit”. Besides, in data set [2] (read-out: inhibition of phage T4 PNKP), the inhibition at 50 µM was ~12.5%. Besides, the “inhibition of mouse PNKP” value on mouse PNKP was “significantly inhibited”. Further, at aprataxin (APTX), the “inhibition of aprataxin phosphatase activity” value is reported as “refractory”. Moreover, the inhibition at 1 µM in data set [3] (1 μM) was ~16%. Also, in data set [3] (50 μM), the “reduction of human PNKP kinase activity” value is ~30%. For the same compound, the “effect on cell proliferation” value with A549 cells (1 μM) and in the data set with MDA-MB-231 cells (1 μM) was “No effect” each time. Also, the “reduction in cell proliferation” value in the data set on A549 cells (100 μM) and with MDA-MB-231 cells (100 μM) was “up to 50%” throughout. For the same compound, in data set [4], the “synthetic lethality in M059J cells” value was “no synthetic lethality is seen”.

The values above are taken from US9694073B2, “Small molecule inhibitors of polynucleotide kinase/phosphatase, poly(ADP-ribose) polymerase and uses thereof” (THE GOVERNORS OF THE UNIVERSITY OF ALBERTA, priority 2009, dated 2017).
